The results in this text go back to ChEMBL document CHEMBL5727202, “Aryl acylsulfonamides as BLT1 antagonists” (2019).

The target of this assay is Leukotriene B4 receptor 1 (Homo sapiens, UniProt Q15722). In words: BLT-1 cAMP Assay: The ability of compounds to antagonize the human BLT1 receptor was determined using a kit to measure changes in intracellular cyclic AMP levels (cAMP dynamic assay kit, Cisbio Cat. No. 62AM4PEC). HEK293 cells recombinantly expressing human BLT1 receptor, previously frozen in Recovery Medium (Life Technologies, Cat. No. 12648-010) were thawed and diluted into assay medium (HBSS (Hyclone SH 30268.01), 20 mM HEPES (Gibco 15630-106), 800 μM IBMX (Sigma I5879), 0.1% DTPA BSA (Perkin Elmer CR84-100)). The cell suspension was centrifuged at 200×g for 10 min and then resuspended in fresh assay medium to a density of 2.5×10^5 cells/mL. A Labcyte Echo 550 acoustic dispenser was used to transfer 25 nL of test compound dissolved in DMSO into the wells of a dry 384-well plate (Greiner 784075). All subsequent liquid additions were performed using a BIORAPTR (FRD; Beckman Coulter). Next, 5 μL of cell suspension was added and incubated for 20 min. at 37° C. and 5% CO2 in a humidified plastic tray. To test for agonist activity […] of assay buffer containing forskolin (Sigma F-6886. 4 μM for BLT1) was added and incubated for 30 minutes at 37° C. and 5% CO2 in a humidified plastic tray. To test for antagonist activity 5 μL of assay buffer containing forskolin (Sigma F-6886. 4 μM for BLT1) and either LTB4 (Sigma Aldrich L0517; 2 nM BLT1) was added and incubated for 30 minutes at 37° C. and 5% CO2 in a humidified plastic tray.The levels of cAMP were detected using the CisBio kit following the manufacturer's instructions: cAMP-d2 vial was reconstituted with distilled water and then diluted accordingly with conjugate & lysis buffer. 5 μL of cAMP-d2 working solution was added to all of the wells of the assay plate. cAMP-Cryptate vial was reconstituted with distilled water and then diluted accordingly with conjugate & lysis buffer. 5 μL of cAMP-Cryptate working solution were added to the assay plate. […]. In kind it is cell-based.
Leukotriene B4 receptor 1, sequence (Q15722 whole entry): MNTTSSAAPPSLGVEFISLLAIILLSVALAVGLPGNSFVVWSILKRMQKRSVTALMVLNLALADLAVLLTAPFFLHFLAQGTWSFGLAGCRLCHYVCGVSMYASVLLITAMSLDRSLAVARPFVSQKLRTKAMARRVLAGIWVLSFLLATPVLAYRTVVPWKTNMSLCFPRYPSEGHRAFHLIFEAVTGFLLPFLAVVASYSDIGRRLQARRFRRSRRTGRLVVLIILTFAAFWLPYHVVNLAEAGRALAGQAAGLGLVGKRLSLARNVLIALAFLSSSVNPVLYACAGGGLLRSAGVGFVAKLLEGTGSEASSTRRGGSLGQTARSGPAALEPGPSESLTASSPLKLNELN

A word on the EC50: it is the concentration at which the effect is half-maximal.

On to `CCn1nccc1C[C@@H]1COc2cc(-c3ccccc3C(=O)NS(=O)(=O)C3(C)CC3)ccc2[C@H]1O` (racemic), for which the EC50 amounted to 538 nM.
With `O=C(NS(=O)(=O)C(F)(F)F)c1ccc(F)cc1-c1ccc2c(c1)OC[C@H](Cc1ccc(-c3ccccc3)cc1)[C@H]2O` (single isomer, unassigned), the EC50 worked out at 35 nM.
For the compound `CC1(S(=O)(=O)NC(=O)c2ccccc2-c2ccc3c(c2)OC[C@@H](Cc2coc(-c4ccccc4)n2)[C@@H]3O)CC1` (single isomer, unassigned), the EC50 was 60 nM.
